pIC50: −log10 of the molar value. “And” between values parts separate entries of the source, which are not always exact repeats. Equal entries are not always repeated. Where two headings read alike, the source gives them in different places.
How the values were obtained:
[1] = biological target: T1, PDE9 (catalytic domain of PDE9A2) (Homo sapiens, UniProt O76083); experiment: Enzymatic assay against PDE9 (3H-cGMP hydrolysis, scintillation counting); assay type: biochemical; details: for inhibition at 0.01 µM: at a concentration of 0.01 μM
T1 construct: PDE9 recombinant catalytic domain (amino acid 181–506); made in house; host or cells: E. coli BL21 (Codonplus)
T1 sequence (O76083 241-566): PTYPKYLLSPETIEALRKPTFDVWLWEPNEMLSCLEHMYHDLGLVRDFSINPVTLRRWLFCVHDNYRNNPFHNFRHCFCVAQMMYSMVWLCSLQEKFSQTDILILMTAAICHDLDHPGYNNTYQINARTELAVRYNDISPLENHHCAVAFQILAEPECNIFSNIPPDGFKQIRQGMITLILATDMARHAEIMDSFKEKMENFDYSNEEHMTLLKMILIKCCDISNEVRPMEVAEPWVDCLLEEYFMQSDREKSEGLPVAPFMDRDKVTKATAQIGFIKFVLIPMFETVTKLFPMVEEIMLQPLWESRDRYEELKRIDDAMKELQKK
Experimental: In brief, E. coli strain BL21 (Codonplus), which carrying with recombinant pET-PDE9A2 plasmid, was grown in LB medium (containing 100 μg/mL ampicillin and 0.4% glucose) at 37 °C until an OD600 achieved 0.6–0.8. Then, the temperature was turned down to 15 °C, and 0.1 mM iso-propyl-b-D-thiogalactopyranoside was added to LB medium to induce the expression of PDE9A2 protein. Bacteria were induced for 20 h and collected for purified PDE9A2 recombinant protein by a Ni-NTA column (Qiagen, Venlo, The Netherlands).
As for the enzymatic assays, ^3H-cGMP (20,000–30,000 cpm, GE Healthcare), the substrate for enzymatic assays against PDE9A2, were diluted in an assay buffer (containing 50 mM Tris-HCl (pH 8.0), 10 mM MgCl2, and 1 mM DTT). And then, the substrate ^3H-cGMP, catalytic domain of PDE9A2, and different concentrations of tested compounds were incubated at room temperature for 15 min. To terminate the reaction, 0.2 M ZnSO4 and 0.2 N Ba(OH)2 were added to the mixture, leaving unreacted ^3H-cGMP in the supernatant. […] Each compound was measured at a minimum of eight concentrations for the IC50 calculation and repeated at least three times.
4.Enzymatic assays against PDE9
The assay buffer contains 50 mM Tris-HCl (pH 8.0), 10 mM MgCl2 or 4 mM MnCl2, 1 mM DTT, and 10-20 nM 3H-cGMP (15000−30000 cpm/assay, CPM control). The reaction was carried out at room temperature for 15 min and then terminated by addition of 0.2 M ZnSO4. The reaction product 3H-GMP was precipitated out by […], whereas unreacted 3H-cGMP remained in the supernatant. The radioactivity in the supernatant was measured in 2.5 […]
(CPMenzyme). For the measurement of IC50 of inhibitors, at least seven concentrations of inhibitors were used in the presence of 3H-cGMP. The enzyme concentration in a range of 10− 100 ng/mL, which hydrolyzed 50- 70% of the substrate, was chosen for each inhibitory assay. The radioactivity was recorded as CPMinhibitor. The IC50 values for PDE9 were calculated using a nonlinear regression analysis.
Inhibition = […] × 100%

[2] = Antioxidant activity, ORAC-FL method; details: Trolox as standard
Experimental: The modified Oxygen Radical Absorbance Capacity Fluorescein (ORAC-FL) method was used for antioxidant activity test. In brief, the mixture of test compounds (20 μL) and fluorescein (120 μL, final concentration of 150 nM) was added into a black 96-well plate and incubated for 15 min at 37 °C. Then, 60 μL of 2,2′-azobis(2-amidinopropane) dihydrochloride (AAPH) solution (12 mM) was added rapidly to induce the reaction. The fluorescence with an excitation wavelength of 485 nm and emission at 535 nm was measured in Spectrafluor Plus plate reader (Tecan, Crailsheim, Germany) every minute for 4 h. Integration of the area under the curve (AUC) was […] 1 to 8 μM Trolox was used as a standard. Each compound was tested at 1–10 μM at least in three independent assays. The ORAC-FL values of each compound were calculated according to Equation (1) and expressed as Trolox equivalents.(1) ORAC-FL value=AUCsample−AUCblank/AUCTrolox−AUCblank×ConcentrationTrolox/Concentrationsample

[3] = 0.25 h, at a concentration of 0.1 μM, read-out: Inhibition ratio against PDE9
[4] = 0.25 h, read-out: Inhibition ratio against PDE9
[5] = 6.25 nM, read-out: Inhibition (PDE9 dose-response, single runs)
[6] = 25 nM, read-out: Inhibition (PDE9 dose-response, single runs)
[7] = 50 nM, read-out: Inhibition (PDE9 dose-response, single runs)
[8] = 100 nM, read-out: Inhibition (PDE9 dose-response, single runs)
[9] = 200 nM, read-out: Inhibition (PDE9 dose-response, single runs)
[10] = 400 nM, read-out: Inhibition (PDE9 dose-response, single runs)
[11] = 800 nM, read-out: Inhibition (PDE9 dose-response, single runs)
[12] = 1600 nM, read-out: Inhibition (PDE9 dose-response, single runs)

Compound | inhibition at 0.1 µM [1, 3] [%] | ORAC [2] | pIC50 [1] | inhibition at 0.01 µM [1, 4] [%] | Inhibition (PDE9 dose-response, single runs) ([1]; 6.25 nM, 0.00625 µM) | Inhibition (PDE9 dose-response, single runs) ([1]; 12.5 nM, 0.0125 µM) | Inhibition (PDE9 dose-response, single runs) ([1]; 25 nM, 0.025 µM) | Inhibition (PDE9 dose-response, single runs) ([1]; 50 nM, 0.05 µM) | Inhibition (PDE9 dose-response, single runs) ([1]; 100 nM, 0.1 µM) [%] | inhibition at 0.1 µM [1, 8] [%] | Inhibition (PDE9 dose-response, single runs) ([1]; 200 nM, 0.2 µM) [%] | inhibition at 0.2 µM [1, 9] [%] | Inhibition (PDE9 dose-response, single runs) ([1]; 400 nM, 0.4 µM) [%] | inhibition at 0.4 µM [1, 10] [%] | Inhibition (PDE9 dose-response, single runs) ([1]; 800 nM, 0.8 µM) [%] | inhibition at 0.8 µM [1, 11] [%] | Inhibition (PDE9 dose-response, single runs) ([1]; 1600 nM, 1.6 µM) [%] | inhibition at 1.6 µM [1, 12] [%] | further results
C[C@@H](NCc1n[nH]c2ccccc12)c1nc2c(cnn2C2CCCC2)c(=O)[nH]1 [Compound 18e, (R)-6-(1-(((1H-indazol-3-yl)methyl)amino)ethyl)-1-cyclopentyl-1,5-dihydro-4H-pyrazolo[3,4-d]pyrimidin-4-one] | ~50 | 0.15 ± 0.03 μmol of Trolox equiv/μmol tested compound |  |  |  |  |  |  |  |  |  |  |  |  |  |  |  |  | 
COc1ccc2[nH]cc(CC(C)Nc3nc4c(cnn4C4CCCC4)c(=O)[nH]3)c2c1 (centres unmarked) [Compound 17c, 1-cyclopentyl-6-((1-(5-methoxy-1H-indol-3-yl)propan-2-yl)amino)-1,5-dihydro-4H-pyrazolo[3,4-d]pyrimidin-4-one] |  |  | 8.74 | 84 |  |  |  |  |  |  |  |  |  |  |  |  |  |  | 
CC(CCc1c[nH]c2ccccc12)Nc1nc2c(cnn2C2CCCC2)c(=O)[nH]1 (centres unmarked) [Compound 17e, 6-((4-(1H-indol-3-yl)butan-2-yl)amino)-1-cyclopentyl-1,5-dihydro-4H-pyrazolo[3,4-d]pyrimidin-4-one] | 83 | 0.33 ± 0.002 μmol of Trolox equiv/μmol tested compound |  | 67 |  |  |  |  |  |  |  |  |  |  |  |  |  |  | 
COc1ccc2[nH]cc(CC(C)Nc3nc4c(cnn4C4CCOCC4)c(=O)[nH]3)c2c1 (centres unmarked) [Compound 17d, 6-((1-(5-methoxy-1H-indol-3-yl)propan-2-yl)amino)-1-(tetrahydro-2H-pyran-4-yl)-1,5-dihydro-4H-pyrazolo[3,4-d]pyrimidin-4-one] |  |  | 7.05 | 13 | 13.00% | 26.71% | 28.77% | 37.79% | 60.91 | 61.6 | 75.64 | 77.6 | 87.67 | 90.5 | 94.30 | 96.4 | 97.54 | 108 | inhibition at 0.00625 µM [1, 5]: 13.8%; inhibition at 0.0125 µM ([1]; 12.5 nM, read-out: Inhibition (PDE9 dose-response, single runs)): 34.7%; inhibition at 0.025 µM [1, 6]: 26.4%; inhibition at 0.05 µM [1, 7]: 43.8%
COc1ccc2[nH]cc(CN[C@H](C)c3nc4c(cnn4C4CCCC4)c(=O)[nH]3)c2c1 [Compound 18c, (R)-1-cyclopentyl-6-(1-(((5-methoxy-1H-indol-3-yl)methyl)amino)ethyl)-1,5-dihydro-4H-pyrazolo[3,4-d]pyrimidin-4-one] | < 30 |  | 6.71 |  | -0.81% and -1.99% | 4.63% and -3.63% | -0.82% and 5.95% | -1.13% and 3.15% | 16.13 | 9.05 | 51.73 | 42.9 | 69.38 | 75.3 | 80.02 | 90.6 | 87.34 | 90.2 | 
C[C@@H](NCc1c[nH]c2ccc(F)cc12)c1nc2c(cnn2C2CCCC2)c(=O)[nH]1 [Compound 18b, (R)-1-cyclopentyl-6-(1-(((5-fluoro-1H-indol-3-yl)methyl)amino)ethyl)-1,5-dihydro-4H-pyrazolo[3,4-d]pyrimidin-4-one] | 76 | 0.88 ± 0.08 μmol of Trolox equiv/μmol tested compound |  | 61 |  |  |  |  |  |  |  |  |  |  |  |  |  |  | 
CC(Cc1n[nH]c2ccccc12)Nc1nc2c(cnn2C2CCCC2)c(=O)[nH]1 (centres unmarked) [Compound 17g, 6-((1-(1H-indazol-3-yl)propan-2-yl)amino)-1-cyclopentyl-1,5-dihydro-4H-pyrazolo[3,4-d]pyrimidin-4-one] | 82 | 0.17 ± 0.004 μmol of Trolox equiv/μmol tested compound |  | 70 |  |  |  |  |  |  |  |  |  |  |  |  |  |  | 
COc1ccc2[nH]nc(CN[C@H](C)c3nc4c(cnn4C4CCCC4)c(=O)[nH]3)c2c1 [Compound 18f, (R)-1-cyclopentyl-6-(1-(((5-methoxy-1H-indazol-3-yl)methyl)amino)ethyl)-1,5-dihydro-4H-pyrazolo[3,4-d]pyrimidin-4-one] | < 30 | 0.24 ± 0.02 μmol of Trolox equiv/μmol tested compound |  |  |  |  |  |  |  |  |  |  |  |  |  |  |  |  | 
O=c1[nH]c(NCCc2c[nH]c3ccc(O)cc23)nc2c1cnn2C1CCCC1 [Compound 17b, 1-cyclopentyl-6-((2-(5-hydroxy-1H-indol-3-yl)ethyl)amino)-1,5-dihydro-4H-pyrazolo[3,4-d]pyrimidin-4-one] |  |  | 7.04 | 16 | 9.16% | 9.23% and 4.22% | 21.21% | 34.04% | 49.42 | 55.3 | 66.06 | 67.7 | 76.31 | 82.6 | 86.82 | 90.6 | 94.94 | 95.1 | inhibition at 0.00625 µM [1, 5]: 6.08%; inhibition at 0.025 µM [1, 6]: 24.1%; inhibition at 0.05 µM [1, 7]: 36.3%
COc1ccc2c(c1)c(CN[C@H](C)c1nc3c(cnn3C3CCCC3)c(=O)[nH]1)cn2C [Compound 18d, (R)-1-cyclopentyl-6-(1-(((5-methoxy-1-methyl-1H-indol-3-yl)methyl)amino)ethyl)-1,5-dihydro-4H-pyrazolo[3,4-d]pyrimidin-4-one] |  |  | 6.67 |  |  |  |  |  |  |  |  |  |  |  |  |  |  |  | Inhibition (PDE9 dose-response, single runs) ([1]; 6.4875 nM, 0.0064875 µM): 4.86% and 1.81%; Inhibition (PDE9 dose-response, single runs) ([1]; 12.975 nM, 0.012975 µM): 9.60%; inhibition at 0.012975 µM ([1]; 12.975 nM, read-out: Inhibition (PDE9 dose-response, single runs)): 4.99%; Inhibition (PDE9 dose-response, single runs) ([1]; 25.95 nM, 0.02595 µM): 11.54%; inhibition at 0.02595 µM ([1]; 25.95 nM, read-out: Inhibition (PDE9 dose-response, single runs)): 16.6%; Inhibition (PDE9 dose-response, single runs) ([1]; 51.9 nM, 0.0519 µM): 21.64%; inhibition at 0.0519 µM ([1]; 51.9 nM, read-out: Inhibition (PDE9 dose-response, single runs)): 20.2%; Inhibition (PDE9 dose-response, single runs) ([1]; 103.8 nM, 0.1038 µM): 34.81%; inhibition at 0.1038 µM ([1]; 103.8 nM, read-out: Inhibition (PDE9 dose-response, single runs)): 33.4%; Inhibition (PDE9 dose-response, single runs) ([1]; 207.6 nM, 0.2076 µM): 49.32%; inhibition at 0.2076 µM ([1]; 207.6 nM, read-out: Inhibition (PDE9 dose-response, single runs)): 54.3%; Inhibition (PDE9 dose-response, single runs) ([1]; 415.2 nM, 0.4152 µM): 80.76%; inhibition at 0.4152 µM ([1]; 415.2 nM, read-out: Inhibition (PDE9 dose-response, single runs)): 86.5%; Inhibition (PDE9 dose-response, single runs) ([1]; 830.4 nM, 0.8304 µM): 88.96%; inhibition at 0.8304 µM ([1]; 830.4 nM, read-out: Inhibition (PDE9 dose-response, single runs)): 93%
